Laboratory results as given in patent US9173875B2, “Treatment for nicotine-induced lung disease using peroxisome proliferator-activated receptor gamma agonists” (Los Angeles Biomedical Research Institute at Harbor-UCLA …, priority 2006, dated 2015).
Like-named read-outs stand apart in the source and are kept apart here.

Columns and labels:
WI38 cells [1] = assay: Triglyceride uptake assay ([3H]triolein) in WI38 cells; format: cell-based, human
Procedure: The human embryonic cell line WI38 was obtained from American Type Culture Collection (Rockville, Md.). Cells were grown in MEM plus 10% FBS at 37° C. in six-well plates, four-well slides, and 60- and 100-mm culture dishes as needed.
The method used to quantitate triglyceride uptake by fetal rat lung fibroblasts has been described previously (Torday et al. (1995) Biochim Biophys Acta 1254: 198-206). Briefly, culture medium was replaced with DMEM containing 20% adult rat serum mixed with [3H]triolein (5 μCi/ml). The cells were incubated at 37° C. in 5% CO2+balance air for 4 h. At the termination of the incubation, the medium was decanted, the cells were rinsed twice with 1 ml of ice-cold MEM, and the cells were removed from the culture plate after a 5- to 10-min incubation with 2 ml of a 0.05% trypsin solution. An aliquot of the cell suspension was taken for protein assay (Bradford (1976) Anal Biochem 72: 248-254), and the remaining cell suspension was extracted for neutral lipid content.

[2] = test system: fetal alveolar type II (ATII) cells; assay: In vivo ATII cell proliferation assay (PCNA and SP-C double labeling) after in utero nicotine; parameters: species or system Sprague-Dawley rat
fetal ATII cells = assay: Ex vivo ATII cell proliferation assay (tetrazolium dye) after in utero nicotine; parameters: species or system Sprague-Dawley rat; conditions: nicotine 1 mg/kg in utero; vs control, P<0.05, n=6
Procedure: Pathogen-free timed (embryonic day 0=day of mating) pregnant Sprague-Dawley rats (200-250 g body wt) were obtained from Charles River (Hollister, Calif.) at embryonic day 3 and allowed to acclimatize until embryonic day 6. […] The fetuses were extracted by cesarean section, and the lungs were snap frozen for later analysis or processed for ATII cell or fibroblast culture. […] Louis, Mo.; 0.25 mg/kg). All studies were approved by the Los Angeles Biomedical Research Institute Institutional Review Board and were conducted in accordance with the National Institutes of Health Guide for the Care and Use of Laboratory Animals. ATII cells were isolated using differential adherence in monolayer culture, as described previously (Battenburg et al. (1990) Biochim. Biophys. Acta 960: 441-456). Briefly, three to five […] used per preparation. The fetuses were delivered via cesarean section, and fetal lungs were placed in Hanks' balanced salt solution without calcium and magnesium. […] A Teflon stirring bar was used to further dissociate the lungs by mechanical disruption of the tissue during incubation in a 37° C. water bath. After the tissue was dispersed into a unicellular suspension, the cells were pelleted at 500 g for 10 min at room temperature in a 50-ml polystyrene centrifuge tube. […] The cell suspension was then added to 75-cm^2 (T-75) culture flasks for 30-60 min to allow for differential adherence of lung fibroblasts. The unattached cells were then transferred to another T-75 culture flask for an additional 60 min. After this second culture period, the medium and nonadherent cells were removed from the flask and diluted with 1 vol of culture medium. This diluted suspension was cultured overnight in a T-75 culture flask at 37° C. in a CO2 incubator to allow the ATII cells to adhere. […] According to the manufacturer's protocol, cell proliferation was determined by the tetrazolium dye assay, which is based on the conversion of a tetrazolium salt to a red formazan product by living cells (Cell Proliferation Assay, Promega).

fetal rat lung explants = assay: In vitro ATII cell proliferation in lung explants (PCNA and SP-C labeling); format: cell-based; conditions: nicotine 24 h; P<0.05, n=4
Procedure: Explants derived from three to five litters of rats were used for each experiment during the course of the studies. Lungs were harvested from fetal rats under sterile conditions. The lung tissue was chopped into −1-mm cubes and incubated in 0.5 ml of Waymouth's MB-252/1 medium containing penicillin (100 U/ml)-streptomycin (100 U/ml) and Fungizone (2.5 μg/ml) in six-well plates while rocking on an oscillating platform (3 cycles/min) in 5% CO2-95% air at 37° C. The explants were allowed to attach for 1-2 h.
Cultured ATII cells or explants were treated with nicotine under various experimental conditions (see below), and cell proliferation was determined by Cell Proliferation Assay (Promega) or dual PCNA and SP-C labeling, respectively (see above).

ATII cells [3] = assay: Phospholipid synthesis ([3H]choline incorporation) by ATII cells treated in vitro; format: cell-based, rat; conditions: nicotine 1×10^−9 M, 24 h, in vitro
Procedure: Isolated ATII cells were cultured in DMEM+10% FBS in 6- and 96-well plates, 100-mm dishes, and T-75 flasks, as needed, and maintained at 37° C. in a humidified incubator containing 5% CO2-95% air. At 80-90% confluence, cells were processed for cell proliferation, differentiation, and metabolic studies (see below).
Incorporation of [methyl-3H]choline chloride (NEN Dupont) into saturated phosphatidylcholine was determined in monolayers of cultured explants and ATII cells. […] After incubation, explants and cells were washed three times with ice-cold PBS. The explants and the scraped cells were thoroughly homogenized, and the cellular lipids were extracted with chloroform-methanol (2:1) (Bligh and Dyer (1959) Can. J. Biochem. Physiol., 37: 911-917). The organic phase was dried under a stream of nitrogen at 60° C., resuspended in 0.5 ml of carbon tetrachloride containing 3.5 mg of osmium tetroxide, and left at room temperature for 15 min. The reaction mixture was redried under nitrogen and resuspended in 70 μl of chloroform-methanol (9:1, vol/vol). The lipid extracts were transferred to silica gel plates (Kodak, Rochester, N.Y.) and developed in a chloroform-methanolwater (65:25:4) solvent system. Pure dipalmitoyl phosphatidylcholine was used as the chromatographic standard. The developed plates were stained with bromothymol blue, blotted, and vacuum dried for 5 min at 90° C. Chromatogram spots corresponding to the migration of saturated phosphatidylcholine were scraped from the plates and counted by liquid scintillation spectrometry. The amounts of [methyl^3H]choline chloride incorporated into saturated phosphatidylcholine were expressed as disintegrations per minute per milligram of protein.

ATII cells [4] = assay: Western analysis of CCT-α and SP-B in ATII cells after in utero nicotine; format: in vivo, Sprague-Dawley rat
Procedure: Pathogen-free timed (embryonic day 0=day of mating) pregnant Sprague-Dawley rats (200-250 g body wt) were obtained from Charles River (Hollister, Calif.) at embryonic day 3 and allowed to acclimatize until embryonic day 6. […] The fetuses were extracted by cesarean section, and the lungs were snap frozen for later analysis or processed for ATII cell or fibroblast culture. […] Louis, Mo.; 0.25 mg/kg). All studies were approved by the Los Angeles Biomedical Research Institute Institutional Review Board and were conducted in accordance with the National Institutes of Health Guide for the Care and Use of Laboratory Animals. Protein extraction and Western blot analysis for SP-B and choline phosphate cytidylyltransferase-α (CCT-α) were performed using standard methods. […] Chemicon) overnight at 4° C. The antibody for CCT-α (1:2,000 dilution) was a kind gift from Dr. […] (University of Iowa, Iowa City, Iowa). […] The density of the SP-B and CCT-α bands was quantified using a scanning densitometer (Eagle Eye, Stratagene).

WI38 cells [5] = assay: Reversal experiment, immunofluorescence double staining (ADRP or lipid droplets and αSMA) in WI38 cells; format: cell-based, human
Procedure: Cells were grown in minimum essential medium (MEM) +10% fetal bovine serum at 37° C. in six-well plates, two well slides, and 60-mm and 100-mm culture dishes, as needed. […] Subsequently, the cells were treated with rosiglitazone (RGZ) (1×10^−5 M) (a PPARγ agonist), PTHrP (5×10^−7 M), or DBcAMP (1×10^−5 M) for 7 days, and the expression of PTHrP receptor, PPARγ, ADRP, calponin, and cSMA was determined by Western analysis and immunohistochemistry. Simultaneously, fibroblast function was characterized by measuring their capacity to take up triglycerides. Some experiments were performed in the presence of a specific PPARγ antagonist, GW9662. Medium containing fresh chemicals was added daily, and at the end of the experimental period the cells were processed as needed.
The lipogenic and myogenic status of cultured WI38 cells was assessed by simultaneous staining for either lipid droplets or ADRP and αSMA. Lipids were detected by using either oil red 0 staining or ADRP expression (polyclonal anti-ADRP 1:500), and αSMA expression was assessed by using anti-αSMA (1:1000, mouse monoclonal IgG2a, Sigma, catalog No. A2547) primary antibody. […] At the end of the experimental period, slides were fixed in freshly prepared 4% paraformaldehyde. […] Slides were rinsed three times for 5 min and then mounted and visualized under a fluorescence microscope.

WI38 cells [6] = assay: Reversal experiment, triglyceride (triolein) uptake by WI38 cells; format: cell-based, human; conditions: nicotine 7 days
WI38 cells [7] = test system: WI38 cells
WI38 cells [8] = conditions: 7 days, vs control; for change in PTHrP receptor mRNA expression: means±SE
WI38 cells [9] = test system: WI38 cells; remark: listed apart in the source
Procedure: Lipogenic and myogenic status of cultured WI38 cells was assessed by simultaneous staining for lipid droplets and -SMA. Lipids were stained using oil red 0 staining, and -SMA expression was assessed by using anti-SMA (cat. no. A2547, 1:1,000, mouse monoclonal IgG2, Sigma) primary antibody. […] At the end of the experimental period, slides were fixed in freshly prepared 4% paraformaldehyde. Fixed slides were washed in PBS, blocked with 3% normal goat serum (Jackson Immunoresearch Lab) in PBS for 30 min at room temperature to block nonspecific binding, and then incubated in primary antibody overnight at 4° C. Secondary biotinylated anti-mouse IgG2 was used at 1:200 dilution for 30 min. The slides were then washed 3× with PBS and with double-distilled water 2× and were then incubated with oil red 0 (Sigma) for 15-30 min. Slides were rinsed 3× for 5 min and then mounted and coverslipped with Vestashield mounting medium with 4′,6′-diamidino-2-phenylindole (Vector Laboratories) visualization under a fluorescence microscope.

whole lung tissue = conditions: nicotine 2 mg/kg i.p. once daily to dam, e6 to e20
WI38 cells [10] = assay: Reversal of nicotine-induced LIF-to-MYF transdifferentiation in WI38 cells, Western analysis
Procedure: The human embryonic cell line WI38 was obtained from the American Type Culture Collection (Rockville, Md.). Cells were grown in minimum essential medium (MEM) +10% fetal bovine serum at 37° C. in six-well plates, two well slides, and 60-mm and 100-mm culture dishes, as needed. […] Subsequently, the cells were treated with rosiglitazone (RGZ) (1×10^−5 M) (a PPARγ agonist), PTHrP (5×10^−7 M), or DBcAMP (1×10^−5 M) for 7 days, and the expression of PTHrP receptor, PPARγ, ADRP, calponin, and cSMA was determined by Western analysis and immunohistochemistry. Simultaneously, fibroblast function was characterized by measuring their capacity to take up triglycerides. Some experiments were performed in the presence of a specific PPARγ antagonist, GW9662. Medium containing fresh chemicals was added daily, and at the end of the experimental period the cells were processed as needed.
For Western blotting, cells were lysed using an extraction buffer [10 mM tris (hydroxymethyl) aminomethane (Tris, pH 7.5), 0.25 M sucrose, 1 mM EDTA, 5 mM benzamidine, 2 mM phenylmethylsulfonyl fluoride, and 10 (j.tg/ml each of pepstatin A, aprotinin, and leupeptin], and centrifuged at 140 g for 10 min (4° C.). Equal amounts of the protein (25 μg) from the supernatant were dissolved in electrophoresis sample buffer and were subjected to sodium dodecyl sulfate-polyacrylamide (4%-12% gradient) gel electrophoresis (SDS-PAGE) followed by electrophoretic transfer to a nitrocellulose memane. The nonspecific binding of antibody was blocked by washing with Tris-buffered saline (TBS) containing 0.1% Tween 20 (TBST) and 5% milk for 1 h. The blot was then subjected to two brief washes with TBST plus 0.5% Tween 20, incubated in TBST plus 0.1% Tween 20 and the specific primary antibodies (PPARγ 1:2000, Alexis Biochemicals, San Diego, Calif.; cSMA 1:50,000, Sigma, St. Louis, Mo.: ADRP 1:3000) overnight at 4° C. Blots were then washed in TBST plus 0.1% Tween 20 and then incubated for 1 h in secondary antibody, washed, and developed with a chemiluminescent substrate [enhanced chemiluminescence (ECL); Amersham, Arlington Heights, Ill.] following the manufacturer's protocol. The densities of the specific protein bands were quantified using a scanning densitometer (Eagle Eye II still video system, Stratagene, La Jolla, Calif.).

[11] = nicotine 1×10^6 M (so in the source)
[12] = 7d nicotine-only group, 7 days after nicotine 10^−9 M

CN1CCCC1c1cccnc1 (centres unmarked) [nicotine]
decrease in triglyceride uptake (WI38 cells [1]; nicotine 1×10^−9 M for 24 h): ~30% | decrease in triglyceride uptake (WI38 cells [1]; nicotine 1×10^−9 M for 7 days): ~50% | increase in alveolar type II cell proliferation vs control group ([2]; nicotine 1 mg/kg i.p. once daily to dam, e6 to e20): 2 fold | ATII cell proliferation (PCNA and SP-C staining) ([2]; nicotine 1 mg/kg in utero, P<0.05, n=4): almost twofold increase | ATII cell proliferation, tetrazolium dye assay (fetal ATII cells): almost twofold increase | ATII cell proliferation in lung explants (fetal rat lung explants): significantly increased | choline incorporation (ATII cells [3]): significantly increased | steady-state SP-B protein level (ATII cells [4]; in utero nicotine, P<0.05, n=3): significantly increased | CCT-α protein expression (ATII cells [4]; in vivo nicotine exposure): significant increase | ADRP, lipid droplet and αSMA staining (WI38 cells [5]): marked decreases in ADRP and lipid droplet staining and a marked increase in αSMA staining | triolein uptake (WI38 cells [6]): significant decrease | expression of nACh receptors α3 and α7 (WI38 cells [7]): significant increases | change in PTHrP receptor mRNA expression (WI38 cells [8]; [11]): 40±3% | change in ADRP mRNA expression (WI38 cells [8]; [11]): −47±4% | change in PPAR mRNA expression (WI38 cells [8]; [11]): −37±3% | change in α-SMA mRNA expression (WI38 cells [8]; [11]): +140±5% | change in PTHrP receptor mRNA expression (WI38 cells [8]; nicotine 1×10^−9 M): −33±8% | change in ADRP mRNA expression (WI38 cells [8]; nicotine 1×10^−9 M): −41±8% | change in PPAR mRNA expression (WI38 cells [8]; nicotine 1×10^−9 M): −26±7% | change in α-SMA mRNA expression (WI38 cells [8]; nicotine 1×10^−9 M): +38±4% | lipid droplet and α-SMA staining (WI38 cells [9]): decreased lipid staining and increased -SMA staining | αSMA mRNA expression in whole lung (whole lung tissue): significant increase | PTHrP receptor, PPARγ and ADRP mRNA expression in whole lung (whole lung tissue; vs controls, p<0.05): significant decrease | αSMA expression vs untreated controls (WI38 cells [10]; 7 days after stopping nicotine (Example 3)): significantly higher | expression of PTHrP receptor, PPARγ and ADRP vs untreated controls (WI38 cells [10]; [12]): significantly lower | expression of αSMA and calponin vs untreated controls (WI38 cells [10]; [12]): significantly higher | PTHrP receptor expression vs untreated controls (WI38 cells [10]; nicotine 10^−9 M 7 days, then 7 days without nicotine (Example 3)): significantly lower | expression of αSMA and calponin (WI38 cells [10]; nicotine 7 days, p<0.001 vs control, n=3): significant increases | expression of PTHrP receptor, PPARγ and ADRP (WI38 cells [10]; nicotine 7 days, vs control, n=3): significant decreases
